Measurements published in ChEMBL document CHEMBL1201862, “PubChem BioAssay data set” (2004).
Activity calls are given as the source filed them.

Key:
[1] = system: Streptococcus sp. 'group A'; experiment: growth inhibition of control SK(-) GAS strain, dose response, counter-screen for streptokinase expression inhibitor project, luminescence, kanamycin, BacTiterGlo, confirmation (AID 1900); format: functional, organism-based
cells [2] = format: functional, cell-based
Streptokinase A = target: T1, Streptokinase A (Streptococcus pyogenes serotype M1, UniProt P10520); experiment: S. pyogenes streptokinase expression inhibitors, potency, dose response, plasminogen activation absorbance, OD405 (AID 1914); format: functional, Streptococcus pyogenes M1 GAS;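 also: secreted streptokinase activity via plasminogen activation per viability signal from cell pellet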
T1 sequence (P10520 whole entry): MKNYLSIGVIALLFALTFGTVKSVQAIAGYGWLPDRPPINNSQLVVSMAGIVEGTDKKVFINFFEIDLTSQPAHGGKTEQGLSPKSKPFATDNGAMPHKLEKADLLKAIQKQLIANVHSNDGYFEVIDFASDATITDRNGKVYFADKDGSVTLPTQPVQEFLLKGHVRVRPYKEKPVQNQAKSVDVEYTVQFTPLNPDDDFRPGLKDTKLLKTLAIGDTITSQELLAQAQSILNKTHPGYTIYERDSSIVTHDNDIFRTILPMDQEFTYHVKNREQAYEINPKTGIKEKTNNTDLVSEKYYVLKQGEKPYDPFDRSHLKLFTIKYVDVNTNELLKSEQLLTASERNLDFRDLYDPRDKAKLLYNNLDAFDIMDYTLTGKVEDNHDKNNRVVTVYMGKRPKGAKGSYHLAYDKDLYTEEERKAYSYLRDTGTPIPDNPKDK

[3] = inhibitors of intracellular T. cruzi replication, confirmation, NIH3T3 host cells, beta-gal luminescence (AID 2044); format: functional, cell-based;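 also: intracellular parasites grown in NIH/3T3 mouse fibroblasts as host cells; luminescent beta-galactosidase reporter signal from transgenic T. cruzi replicating inside host cells; inhibitors lower the luminescence signal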
cells [4] = format: functional, cell-based; remark: listed apart in the source
[5] = cytotoxicity toward NIH3T3 fibroblasts, dose response, counter-screen, cell-based, ATP luminescence, mouse fibroblasts (AID 2010); format: functional;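 also: cells exposed to compound for about 90 hours before reading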
Streptococcus = experiment: Group A Streptococcus viability loss, dose response, counter-screen for streptokinase expression inhibitor project, luminescence, BacTiterGlo (AID 1915); format: functional, organism-based;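 also: potency for reduction of bacterial viability or growth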
[6] = target: T2, Type-1 angiotensin II receptor (Homo sapiens, UniProt P30556); experiment: AT1 receptor agonists, dose response, selectivity assay for APJ receptor agonist project, cell-based, uHTS hits (AID 488865); format: functional;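 also: beta-arrestin recruitment to AT1 measured by enzyme fragment complementation luminescence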
T2 sequence (P30556 whole entry): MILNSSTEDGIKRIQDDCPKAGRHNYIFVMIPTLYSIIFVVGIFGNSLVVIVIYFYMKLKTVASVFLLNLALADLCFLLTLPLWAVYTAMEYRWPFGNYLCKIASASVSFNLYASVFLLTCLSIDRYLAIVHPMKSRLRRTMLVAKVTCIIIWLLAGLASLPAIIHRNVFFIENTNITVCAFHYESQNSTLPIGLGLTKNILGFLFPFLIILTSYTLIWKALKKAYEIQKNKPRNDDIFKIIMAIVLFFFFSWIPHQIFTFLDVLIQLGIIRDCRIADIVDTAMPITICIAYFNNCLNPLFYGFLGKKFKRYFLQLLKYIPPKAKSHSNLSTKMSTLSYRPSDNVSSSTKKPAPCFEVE

INS1 = experiment: beta cell apoptosis inhibitors, cytokine rescue, dose response, luminescence, retest (AID 449756); format: functional, cell-based; settings: Rattus norvegicus;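 also: cell death triggered by IL-1 beta plus TNF-alpha plus IFN-gamma mixture; protective hits raise ATP signal compared with cytokine alone wells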
[7] = Shn3 3'UTR reporter inhibitors, dose response, cell-based, Clone20 osteoblasts, firefly luciferase, cherry-picked (AID 624132); format: functional;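 also: firefly luciferase luminescence from reporter carrying the Shn3 3'UTR in osteoblasts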
[8] = HepG2 cell cytotoxicity, dose response, cytotoxicity control for Shn3 inhibitor project, CellTiter-Glo, cherry-picked (AID 624134); format: functional, cell-based
[9] = control 3'UTR Renilla luciferase suppression, dose response, counter-screen for Shn3 inhibitor project, cell-based, Clone20-Shn3RL, cherry-picked (AID 624133); format: functional
[10] = target: T3, Probable nicotinate-nucleotide adenylyltransferase (Staphylococcus aureus (strain N315), UniProt P65502); format: functional, Staphylococcus aureus subsp. aureus N315;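 as to IC50 Mean: confirmatory dose-response retesting of NadD inhibitor hits first found in an ultra-high-throughput screen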
T3 sequence (P65502 whole entry): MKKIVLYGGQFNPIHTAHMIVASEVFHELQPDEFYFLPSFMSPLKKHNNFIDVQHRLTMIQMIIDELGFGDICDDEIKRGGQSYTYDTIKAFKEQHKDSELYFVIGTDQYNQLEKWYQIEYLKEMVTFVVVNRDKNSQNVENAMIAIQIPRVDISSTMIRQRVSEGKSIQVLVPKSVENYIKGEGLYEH

[11] = target: T3, Probable nicotinate-nucleotide adenylyltransferase; format: functional, Staphylococcus aureus subsp. aureus N315; settings: read-out: IC50_Mean
[12] = HEp-2 cell cytotoxicity, dose response, cytotoxicity control for RSV inhibitor project, HTS (AID 2410); format: functional; settings: human respiratory syncytial virus
Ion channel NompC = Ion channel NompC (Danio rerio, UniProt Q7T1G6); experiment: Dose response cell-based high-throughput screening assay for agonists of the transient receptor potential channel N1 (TRPN1). [Related pubchem assays (depositor defined):AID1424, AID1448]; format: functional
Sequence of Ion channel NompC (Q7T1G6 whole entry): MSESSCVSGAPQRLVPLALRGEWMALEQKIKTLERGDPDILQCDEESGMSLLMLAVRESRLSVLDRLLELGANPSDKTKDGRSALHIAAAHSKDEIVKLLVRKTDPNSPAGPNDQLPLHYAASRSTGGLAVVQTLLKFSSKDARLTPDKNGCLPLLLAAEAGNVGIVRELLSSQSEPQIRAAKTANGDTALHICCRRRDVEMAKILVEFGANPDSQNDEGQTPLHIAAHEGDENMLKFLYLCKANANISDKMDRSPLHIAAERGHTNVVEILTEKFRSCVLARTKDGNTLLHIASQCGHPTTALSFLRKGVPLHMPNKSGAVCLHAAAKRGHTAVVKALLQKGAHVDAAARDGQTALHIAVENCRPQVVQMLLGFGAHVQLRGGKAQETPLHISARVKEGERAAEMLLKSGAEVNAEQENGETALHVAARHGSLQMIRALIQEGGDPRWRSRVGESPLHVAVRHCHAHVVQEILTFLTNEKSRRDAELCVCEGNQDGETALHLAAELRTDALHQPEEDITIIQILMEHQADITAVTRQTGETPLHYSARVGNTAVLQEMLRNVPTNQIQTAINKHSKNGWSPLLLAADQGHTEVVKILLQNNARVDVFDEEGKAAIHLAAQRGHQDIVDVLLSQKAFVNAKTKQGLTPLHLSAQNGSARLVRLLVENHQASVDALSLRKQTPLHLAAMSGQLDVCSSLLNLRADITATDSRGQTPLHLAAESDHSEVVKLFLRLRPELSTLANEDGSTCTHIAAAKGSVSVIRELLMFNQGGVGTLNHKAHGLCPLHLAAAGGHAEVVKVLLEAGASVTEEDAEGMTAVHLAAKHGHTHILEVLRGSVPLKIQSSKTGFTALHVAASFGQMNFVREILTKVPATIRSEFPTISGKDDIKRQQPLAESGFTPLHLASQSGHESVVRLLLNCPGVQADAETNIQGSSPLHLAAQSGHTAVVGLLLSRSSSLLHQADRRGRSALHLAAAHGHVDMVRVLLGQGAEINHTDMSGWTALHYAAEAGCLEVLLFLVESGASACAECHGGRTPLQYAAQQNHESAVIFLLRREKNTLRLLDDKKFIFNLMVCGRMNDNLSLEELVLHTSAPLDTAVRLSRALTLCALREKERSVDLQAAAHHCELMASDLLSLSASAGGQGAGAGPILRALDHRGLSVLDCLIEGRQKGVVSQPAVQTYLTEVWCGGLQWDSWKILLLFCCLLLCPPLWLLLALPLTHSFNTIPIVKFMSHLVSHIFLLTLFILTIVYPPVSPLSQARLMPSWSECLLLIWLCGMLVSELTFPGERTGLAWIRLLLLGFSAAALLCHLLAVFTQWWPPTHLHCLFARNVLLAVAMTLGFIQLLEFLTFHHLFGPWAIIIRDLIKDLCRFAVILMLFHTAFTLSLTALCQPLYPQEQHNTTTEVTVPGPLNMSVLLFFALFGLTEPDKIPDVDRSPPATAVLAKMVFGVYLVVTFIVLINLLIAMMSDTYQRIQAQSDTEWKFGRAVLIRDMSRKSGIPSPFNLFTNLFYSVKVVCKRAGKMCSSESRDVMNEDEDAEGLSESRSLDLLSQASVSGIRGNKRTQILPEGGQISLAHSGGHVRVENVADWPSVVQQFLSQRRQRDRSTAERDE

Mucolipin-3 = target: T4, Mucolipin-3 (Homo sapiens, UniProt Q8TDD5); experiment: Fluorescence counterscreen assay for […] agonists: dose response cell-based high-throughput screening assay to identify agonists of the transient receptor potential channel ML3 (TRPML3). [Related pubchem assays: 1424, 1448 ]; format: functional
T4 sequence (Q8TDD5 whole entry): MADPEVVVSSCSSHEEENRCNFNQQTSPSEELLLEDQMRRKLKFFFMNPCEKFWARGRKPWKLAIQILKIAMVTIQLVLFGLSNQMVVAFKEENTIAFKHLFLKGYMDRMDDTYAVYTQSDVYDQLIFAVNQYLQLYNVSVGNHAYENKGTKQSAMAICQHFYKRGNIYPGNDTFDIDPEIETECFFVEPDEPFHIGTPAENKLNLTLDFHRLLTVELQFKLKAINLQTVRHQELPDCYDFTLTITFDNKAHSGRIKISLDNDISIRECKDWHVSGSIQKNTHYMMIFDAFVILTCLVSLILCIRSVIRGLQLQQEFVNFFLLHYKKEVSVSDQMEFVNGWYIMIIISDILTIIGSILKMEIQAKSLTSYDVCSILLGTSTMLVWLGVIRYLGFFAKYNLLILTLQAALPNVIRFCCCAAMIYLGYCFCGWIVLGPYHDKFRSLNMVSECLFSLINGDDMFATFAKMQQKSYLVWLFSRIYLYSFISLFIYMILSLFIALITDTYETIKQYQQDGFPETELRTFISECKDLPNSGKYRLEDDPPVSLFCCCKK

[13] = target: T5, Delta-type opioid receptor (Homo sapiens, UniProt P41143); experiment: HTS Image-Based Screen for Antagonists of the DOR Receptor. [Related pubchem assays (depositor defined):AID1777, AID1785, AID1786, AID2133]; format: functional
T5 sequence (P41143 whole entry): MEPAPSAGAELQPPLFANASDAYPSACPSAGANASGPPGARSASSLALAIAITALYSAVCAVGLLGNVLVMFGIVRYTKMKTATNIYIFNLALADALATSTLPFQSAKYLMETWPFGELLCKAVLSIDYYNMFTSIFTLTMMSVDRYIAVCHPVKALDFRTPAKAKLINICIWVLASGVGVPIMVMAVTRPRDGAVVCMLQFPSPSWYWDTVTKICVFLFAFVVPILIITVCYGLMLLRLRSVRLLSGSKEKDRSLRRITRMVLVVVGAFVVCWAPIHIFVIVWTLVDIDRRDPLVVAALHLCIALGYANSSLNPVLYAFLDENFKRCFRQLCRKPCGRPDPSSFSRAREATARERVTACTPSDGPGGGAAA

Mu-type opioid receptor = Mu-type opioid receptor (Homo sapiens, UniProt P35372); experiment: HTS Image-Based Screen for Agonists of the MOR Receptor. [Related pubchem assays (depositor defined):AID1777, AID1785, AID1786, AID2133]; format: functional;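 also: imaging of beta-arrestin GFP recruitment into spots after receptor activation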
Sequence of Mu-type opioid receptor (P35372 whole entry): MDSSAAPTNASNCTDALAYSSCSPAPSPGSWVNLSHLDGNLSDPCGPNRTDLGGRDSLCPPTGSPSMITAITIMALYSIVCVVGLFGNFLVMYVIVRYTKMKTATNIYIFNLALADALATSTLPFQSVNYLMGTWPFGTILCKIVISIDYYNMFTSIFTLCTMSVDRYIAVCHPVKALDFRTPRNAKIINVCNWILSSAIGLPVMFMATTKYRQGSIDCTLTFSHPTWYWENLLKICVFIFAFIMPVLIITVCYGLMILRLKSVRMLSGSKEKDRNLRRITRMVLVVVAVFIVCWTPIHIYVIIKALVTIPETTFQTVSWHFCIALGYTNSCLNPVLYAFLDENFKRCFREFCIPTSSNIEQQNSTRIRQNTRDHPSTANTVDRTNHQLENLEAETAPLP

[14] = target: T5, Delta-type opioid receptor; experiment: HTS Image-Based Screen for Agonists of the DOR Receptor. [Related pubchem assays (depositor defined):AID1777, AID1786, AID2133]; format: functional
[15] = target: T6, Kappa-type opioid receptor (Homo sapiens, UniProt P41145); format: functional
T6 sequence (P41145 whole entry): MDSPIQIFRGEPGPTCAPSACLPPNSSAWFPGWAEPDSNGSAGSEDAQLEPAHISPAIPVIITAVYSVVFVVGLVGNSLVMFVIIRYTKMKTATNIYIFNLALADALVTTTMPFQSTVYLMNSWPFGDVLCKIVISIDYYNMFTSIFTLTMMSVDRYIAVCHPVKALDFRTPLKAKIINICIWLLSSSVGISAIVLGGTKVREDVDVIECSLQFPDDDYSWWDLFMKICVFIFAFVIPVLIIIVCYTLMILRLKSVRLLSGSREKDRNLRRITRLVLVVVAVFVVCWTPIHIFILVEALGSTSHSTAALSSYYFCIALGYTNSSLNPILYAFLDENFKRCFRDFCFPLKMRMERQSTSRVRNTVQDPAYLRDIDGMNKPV

Beta-galactosidase = Beta-galactosidase (Escherichia coli, UniProt Q8VNN2); format: functional
Sequence of Beta-galactosidase (Q8VNN2 whole entry): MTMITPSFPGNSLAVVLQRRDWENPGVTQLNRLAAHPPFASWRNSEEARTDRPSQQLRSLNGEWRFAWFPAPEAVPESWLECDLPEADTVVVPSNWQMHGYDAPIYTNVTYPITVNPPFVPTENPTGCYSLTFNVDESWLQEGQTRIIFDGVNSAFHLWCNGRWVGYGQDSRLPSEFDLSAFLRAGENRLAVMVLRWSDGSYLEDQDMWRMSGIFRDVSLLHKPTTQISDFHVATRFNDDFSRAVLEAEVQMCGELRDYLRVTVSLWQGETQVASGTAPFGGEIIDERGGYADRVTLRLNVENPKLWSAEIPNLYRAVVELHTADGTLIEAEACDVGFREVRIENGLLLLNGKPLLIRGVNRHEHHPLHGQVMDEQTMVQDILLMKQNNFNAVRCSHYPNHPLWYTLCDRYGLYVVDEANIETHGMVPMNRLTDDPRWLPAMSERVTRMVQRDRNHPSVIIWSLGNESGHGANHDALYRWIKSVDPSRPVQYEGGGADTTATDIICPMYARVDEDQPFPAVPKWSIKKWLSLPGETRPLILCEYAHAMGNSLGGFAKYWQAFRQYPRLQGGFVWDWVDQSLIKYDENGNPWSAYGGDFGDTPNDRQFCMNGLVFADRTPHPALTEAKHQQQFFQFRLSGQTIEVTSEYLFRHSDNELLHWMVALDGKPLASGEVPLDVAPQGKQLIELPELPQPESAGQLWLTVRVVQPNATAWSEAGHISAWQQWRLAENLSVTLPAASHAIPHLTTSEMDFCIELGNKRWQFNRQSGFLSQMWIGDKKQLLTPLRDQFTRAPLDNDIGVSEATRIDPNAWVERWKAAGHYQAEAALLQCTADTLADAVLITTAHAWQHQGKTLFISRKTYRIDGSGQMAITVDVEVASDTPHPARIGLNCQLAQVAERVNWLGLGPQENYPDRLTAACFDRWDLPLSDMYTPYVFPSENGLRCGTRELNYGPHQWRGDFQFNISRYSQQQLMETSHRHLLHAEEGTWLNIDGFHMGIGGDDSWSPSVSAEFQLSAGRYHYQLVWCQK

[16] = target: T6, Kappa-type opioid receptor; format: functional; remark: listed apart in the source
Bcl-2-related protein A1 = target: T7, Bcl-2-related protein A1 (Mus musculus, UniProt Q07440); format: functional;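 also: confirmatory dose–response counterscreen on Bfl-1, used to check hits from a UBC13 polyubiquitin inhibitor campaign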
T7 sequence (Q07440 whole entry): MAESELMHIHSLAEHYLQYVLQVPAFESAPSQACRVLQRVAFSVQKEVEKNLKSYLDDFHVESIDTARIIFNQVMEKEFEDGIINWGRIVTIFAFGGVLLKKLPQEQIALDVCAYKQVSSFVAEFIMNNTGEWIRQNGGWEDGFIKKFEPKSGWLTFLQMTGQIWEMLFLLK

[17] = target: T8, Ubiquitin-conjugating enzyme E2 N (Homo sapiens, UniProt P61088); format: functional
T8 sequence (P61088 whole entry): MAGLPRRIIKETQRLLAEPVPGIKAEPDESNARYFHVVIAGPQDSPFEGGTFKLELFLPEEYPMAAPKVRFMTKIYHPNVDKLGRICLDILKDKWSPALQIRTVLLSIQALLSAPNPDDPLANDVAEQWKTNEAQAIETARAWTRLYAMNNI

[18] = target: T8, Ubiquitin-conjugating enzyme E2 N; format: functional; remark: listed apart in the source
[19] = target: T9, DNA repair protein RAD52 homolog (Homo sapiens, UniProt P43351); format: functional, biochemical
T9 sequence (P43351 whole entry): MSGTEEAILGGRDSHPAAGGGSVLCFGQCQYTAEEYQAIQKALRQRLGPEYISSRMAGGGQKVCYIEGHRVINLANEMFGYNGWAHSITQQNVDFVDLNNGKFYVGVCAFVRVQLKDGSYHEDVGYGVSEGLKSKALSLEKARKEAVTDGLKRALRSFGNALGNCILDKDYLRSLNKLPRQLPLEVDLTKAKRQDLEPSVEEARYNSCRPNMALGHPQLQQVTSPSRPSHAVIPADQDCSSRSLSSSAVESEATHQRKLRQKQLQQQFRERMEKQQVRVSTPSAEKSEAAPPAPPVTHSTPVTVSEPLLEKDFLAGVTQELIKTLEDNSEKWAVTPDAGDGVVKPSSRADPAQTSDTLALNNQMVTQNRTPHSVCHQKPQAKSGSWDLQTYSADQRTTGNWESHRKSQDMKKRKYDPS

## Cc1cc(C)c2nc(NNC(=O)c3ccc(S(=O)(=O)N4CCc5ccccc5C4)cc3)sc2c1
[1]
  EC50: 0.458 µM (active)
Cells [2]
  EC50: 7.06 µM (active)
Streptokinase A
  EC50: > 150 µM (not active)
[3]
  EC50: 0.661 µM (active)
Cells [4]
  EC50: > 350 µM (not active)
[5]
  EC50: < 6 µM (inconclusive)
Streptococcus
  EC50: 61.5 µM (inconclusive)
[6]
  EC50: > 100 µM (inactive)
INS1
  AC50: 2.19 µM (active)
[7]
  AC50: 1.98 µM (active)
[8]
  AC50: 2.91 µM (active)
[9]
  AC50: 3.35 µM (active)
[10]
  IC50: 7.18 µM (active)
[11]
  IC50: 38.1 µM (active)

## COc1ccccc1CC(=O)Nc1ccc([N+](=O)[O-])cc1O
[12]
  CC50: 27.7 µM (active)
Ion channel NompC
  EC50: > 29.9 µM (inactive)
Mucolipin-3
  EC50: > 29.9 µM (not active)

## Cc1ccc(CN2C3CCCC2CC(NC(=O)c2ccc(F)cc2)C3)cc1 (stereo not drawn)
[13]
  IC50: > 32 µM (inactive)
Mu-type opioid receptor
  EC50: > 32 µM (inactive)
[14]
  EC50: > 32 µM (inactive)
[15]
  IC50: 7.7 µM (active)
Beta-galactosidase
  EC50: > 31.5 µM (inactive)
[16]
  IC50: 3.7 µM

## CCOc1cccc2sc(N(CCCN(C)C)C(=O)c3ccc(S(=O)(=O)N4CCc5ccccc5C4)cc3)nc12
Bcl-2-related protein A1
  IC50: > 20 µM (inactive)
[17]
  IC50: 8.33 µM (active)
[18]
  IC50: 7.45 µM (active)
[6]
  EC50: > 100 µM (inactive)
[19]
  AC50: 21.2 µM (active)
